The test system of this data set is human MDR1 P-gp. The data set is described as follows: Assay D: efflux in MDCK cells transfected with the human MDR1 gene. The data set is classed as in vitro ADME, canine. As to conditions: dog; MDCK-MDR1, pH 7.4, 37° C.; read-out: Assay D: MDCK efflux ratio (BA/AB). The method, then: The MDCK assay provides information on the potential of a compound to pass the blood brain barrier. Permeability measurements across polarized, confluent MDCK-MDR1 cell monolayers grown on permeable filter supports are used as an in vitro absorption model: apparent permeability coefficients (PE) of the compounds across the MDCK-MDR1 cell monolayers are measured (pH 7.4, 37° C.) in apical-to-basal (AB) and basal-to-apical (BA) transport direction.
The AB permeability (PEAB) represents drug absorption from the blood into the brain and the BA permeability (PEBA) drug efflux from the brain back into the blood via both, passive permeability as well as active transport mechanisms mediated by efflux and uptake transporters that are expressed on the MDCK-MDR1 cells, predominantly by the overexpressed human MDR1 P-gp. Identical or similar permeabilities in both transport directions indicate passive permeation, vectorial permeability points to additional active transport mechanisms. Higher PEBA than PEAB (PEBA/PEAB>5) indicates the involvement of active efflux mediated by MDR1 P-gp, which might compromises the goal to achieve sufficient brain exposure. Therefore this assay provides valuable support for selection of compounds applicable for further in vivo testing. High permeability not limited by efflux at the blood brain barrier is a favourable characteristic for compounds that are to be used for drugs acting primarily in the CNS
D. Assessment of Efflux in Madin-Darby Canine Kidney (MDCK) Cells Transfected with the Human MDR1 Gene
Apparent permeability coefficients (PE) of the compounds across the MDCK-MDR1 cell monolayers are measured (pH 7.4, 37° C.) in apical-to-basal (AB) and basal-to-apical (BA) transport direction. AB permeability (PEAB) represents drug absorption from the blood into the brain and BA permeability (PEBA) drug efflux from the brain back into the blood via both passive permeability as well as active transport mechanisms mediated by efflux and uptake transporters that are expressed on the MDCK-MDR1 cells, predominantly by the overexpressed human MDR1 P-gp. The compounds are assigned to permeability/absorption classes by comparison of the AB permeabilities with the AB permeabilities of reference compounds with known in vitro permeability and oral absorption in the human. Identical or similar permeabilities in both transport directions indicate passive permeation, vectorial permeability points to additional active transport mechanisms. Higher PEBA than PEAB indicates the involvement of active efflux mediated by MDR1 P-gp. Active transport is concentration-dependently saturable.
MDCK-MDR1 cells (1-2×10 e5 cells/1 cm2 area) are seeded on filter inserts (Costar transwell polycarbonate or PET filters, 0.4 μm pore size) and cultured (DMEM) for 7 days. Subsequently, the MDR1 expression is boosted by culturing the cells with 5 mM sodium butyrate in full medium for 2 days. Compounds are dissolved in appropriate solvent (like DMSO, 1-20 mM stock solutions). Stock solutions are diluted with HTP-4 buffer (128.13 mM NaCl, 5.36 mM KCl, 1 mM MgSO4, 1.8 mM CaCl2, 4.17 mM NaHCO3, 1.19 mM Na2HPO4×7H2O, 0.41 mM NaH2PO4×H2O, 15 mM HEPES, 20 mM glucose, 0.25% BSA, pH 7.4) to prepare the transport solutions (0.1-300 μM compound, final DMSO<=0.5%). The transport solution (TL) is applied to the apical or basolateral donor side for measuring A-B or B-A permeability (3 filter replicates), respectively. The receiver side contains the same buffer as the donor side. Samples are collected at the start and end of experiment from the donor and at various time intervals for up to 2 hours also from the receiver side for concentration measurement by HPLC-MS/MS or scintillation counting. Sampled receiver volumes are replaced with fresh receiver solution.
On to `C[C@@H](CNc1ncc(C(F)(F)F)cn1)N(CC(F)F)C(=O)c1cc(F)cc(F)c1-n1nccn1` [Example 1], for which the efflux ratio was below 3. To `C[C@@H](CNc1ncc(C(F)(F)F)cn1)N(CC(F)F)C(=O)c1cccc(F)c1-n1nccn1` [Example 2] belongs below 3. With `C[C@@H](CNc1ncc(C(F)(F)F)cn1)N(CC(F)F)C(=O)c1cccc(F)c1-c1ncccn1` [Example 3], the efflux ratio is below 3.

Take `C[C@@H](CNc1ncc(C(F)(F)F)cn1)N(CC(F)F)C(=O)c1cc(F)ccc1-c1ncccn1` [Example 4]: the efflux ratio was below 3.

On to `C[C@@H](CNc1ncc(C(F)(F)F)cn1)N(CC(F)F)C(=O)c1c(F)cccc1-c1ncccn1` [Example 5], for which the efflux ratio is below 3.

These data come from patent US11324724B2, “N-(2,2-difluoroethyl)-N-[(pyrimidinylamino)propanyl]arylcarboxamides” (Boehringer Ingelheim International GmbH, priority 2017, dated 2022).
